PMC12074917, “Molecular pharmacokinetic mechanism of JBP485 against aristolochic acid I (AAI) -induced nephrotoxicity” (Frontiers in Pharmacology, 2025)

Key:
hOAT1 = biological target: T1, hOAT1 (Homo sapiens, UniProt Q4U2R8); assay: Uptake of AAI by hOAT1-transfected HEK293 cells with or without JBP485; type: cell-based
T1 construct: expressed in transfected cells; host or cells: HEK293
T1 sequence (Q4U2R8 1-563): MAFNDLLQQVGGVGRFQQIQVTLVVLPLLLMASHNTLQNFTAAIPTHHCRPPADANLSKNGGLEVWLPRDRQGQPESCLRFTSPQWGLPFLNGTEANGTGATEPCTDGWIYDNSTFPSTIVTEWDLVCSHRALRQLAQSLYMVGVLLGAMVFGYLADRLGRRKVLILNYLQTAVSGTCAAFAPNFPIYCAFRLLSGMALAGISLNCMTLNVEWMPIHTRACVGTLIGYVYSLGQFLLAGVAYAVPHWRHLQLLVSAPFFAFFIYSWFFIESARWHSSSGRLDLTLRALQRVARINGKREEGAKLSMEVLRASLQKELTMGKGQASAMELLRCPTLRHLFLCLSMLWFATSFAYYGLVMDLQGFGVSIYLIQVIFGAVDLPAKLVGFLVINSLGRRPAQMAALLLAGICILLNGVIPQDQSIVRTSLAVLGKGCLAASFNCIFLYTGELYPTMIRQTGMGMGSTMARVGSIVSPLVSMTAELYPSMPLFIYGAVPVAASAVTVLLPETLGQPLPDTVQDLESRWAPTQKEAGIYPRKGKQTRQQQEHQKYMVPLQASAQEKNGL
Experimental: Uptake experiments with hOAT1/3-HEK293 cells were performed as previously described ([Zhu et al., 2020]). Uptake was initiated by adding transport buffer (1 mL) with AAI (1 μM) and/or JBP485 (500 μM) after the cells were washed twice and incubated with transport buffer at 37°C. Moreover, the concentration-dependent uptake of AAI and the effects of JBP485 on AAI uptake were examined. Uptake was terminated upon the removal of the medium. The cells were washed three times with 1 mL of ice-cold Hanks’ balanced salt solution, lysed with 0.3 mL of 0.1% (v/v) Triton X-100, and then transferred to a polythene tube for quantification by LC-MS/MS. The protein level was measured using the BCA method (Solarbio, Beijing, China) with bovine serum albumin serving as the standard.
The concentrations of the test compounds in plasma, urine, and cell lysates were determined using an Agilent HP1200 liquid chromatography system (Agilent Technology Inc., SC, CA, United States) and an API 3200 triple-quadrupole mass spectrometer (Applied Biosystems, SC, CA, United States). After protein precipitation using acetonitrile, the analyte was separated on a Hypersil BDS C18 column. The mobile phase consisted of acetonitrile and water containing 0.1% (v/v) formic acid (80:20, v/v). The flow rate was 0.4 mL/min. The mass spectrometer was equipped with an electrospray ionization (ESI) source. Data were acquired in positive ion mode and dynamic multiple reaction monitoring (MRM) mode. The ESI source conditions were as follows: ion spray voltage, 5.5 kV; ion source temperature, 600°C; Gas source 1 (GS1, N2) pressure, 50 psi; Gas source 2 (GS2, N2) pressure, 60 psi; curtain gas (CUR) pressure, 12 psi; and collision gas (CAD) pressure, 10 psi. EP and CXP were set at […] for all analytes. The scan range was m/z 359.9→298.1 for AAI and m/z 130.0→71.2 for IS (Internal Standard, metformin). […] Intra- and inter-day precision was lower than 4.5% with reference to relative standard deviation, while accuracy was within ±6.5% in terms of relative error for analytes. Analyst software (version 1.4.1) was used for equipment control and data acquisition and analysis.

NRK-52E cells = assay: Intracellular ROS level by DCFH-DA flow cytometry; type: cell-based, rat
Experimental: NRK-52E cells were plated in 6-well culture plates at a density of 5 ×10^4 cells/mL and treated with various concentrations of JBP485 (62.5, 125 and 250 μM) for 2.5 h. After challenge with AAI (11 μM) for 24 h, the cells were harvested and resuspended in 500 μL of DCFH-DA (10 μM) for the detection of ROS by flow cytometry (Becton Dickinson, United States) (Aagaard et al., 2014).

rat kidney slices = assay: In vitro uptake of AAI in kidney slices; type: in vitro ADME; conditions: AAI 1 μM, JBP485 500 μM
Experimental: Rat kidneys were cut into slices with a ZQP-86 tissue slicer (Zhixin Co. Ltd., China), as previously described ([Wang et al., 2014]). After preincubation for 3 min at 37°C, the kidney slices were transferred to 24-well culture plates containing 1 mL of fresh oxygenated buffer with AAI (1 μM) and/or JBP485 (500 μM) and further incubated at 37 °C with gentle shaking. After incubation for 5, 15, and 30 min, the slices were washed with ice-cold Hanks’ balanced salt solution (pH 7.5). The amount of AAI accumulated in the homogenized kidneys was determined by LC–MS/MS.
The concentrations of the test compounds in plasma, urine, and cell lysates were determined using an Agilent HP1200 liquid chromatography system (Agilent Technology Inc., SC, CA, United States) and an API 3200 triple-quadrupole mass spectrometer (Applied Biosystems, SC, CA, United States). After protein precipitation using acetonitrile, the analyte was separated on a Hypersil BDS C18 column. The mobile phase consisted of acetonitrile and water containing 0.1% (v/v) formic acid (80:20, v/v). The flow rate was 0.4 mL/min. The mass spectrometer was equipped with an electrospray ionization (ESI) source. Data were acquired in positive ion mode and dynamic multiple reaction monitoring (MRM) mode. […]

`O=C1N[C@@H](CO)C(=O)N2C[C@H](O)C[C@@H]12` (relative stereo) [JBP485, cyclo-trans-4-L-hydroxyprolyl-L-serine] was tested, and the “type of inhibition of AAI uptake” value (hOAT1; hOAT1-HEK293 cells, Km increased, Vmax unchanged) was “competitive inhibition”, the IC50 (hOAT1; hOAT1-transfected HEK293 cells, substrate AAI, read-out: IC50 of inhibition of AAI uptake, OAT1) was 89.8 ± 12.3 µM and the “ROS production in NRK-52E cells” value (NRK-52E cells; JBP485 alone vs control) was “did not alter”. For the same compound, the “AAI-induced rise in ROS production in NRK-52E cells” value (NRK-52E cells; JBP485 co-administered with AAI 11 μM) was “significantly attenuated” and the “AAI uptake in kidney slices” value (rat kidney slices) was “inhibited”.
For `COc1cccc2c1cc([N+](=O)[O-])c1c(C(=O)O)cc3c(c12)OCO3` [AAI, Aristolochic Acid I], the Km (hOAT1; hOAT1-HEK293 cells, with or without JBP485, Eadie-Hofstee, n = 3) was 15.7 ± 0.4 µM, the “Vmax of AAI uptake” value (hOAT1; hOAT1-HEK293 cells, with or without JBP485, n = 3) was 0.141 ± 0.04 nmol/mg protein/1min and the “ROS generation in NRK-52E cells” value (NRK-52E cells; AAI alone 11 μM 24 h vs control) was “significant increase”.
